This series concerns CCRIS mutagenicity, Ames/micronucleus/aberration tests. Nature of the series: CCRIS mutagenicity studies.
The mark [1] stands for this setting: Test System: AMES SALMONELLA TYPHIMURIUM, Strain/Indicator: TA100, Metabolic Activation: NONE, Method: STANDARD PLATE.
Where [2] appears, read: Test System: AMES SALMONELLA TYPHIMURIUM, Strain/Indicator: TA98, Metabolic Activation: NONE, Method: STANDARD PLATE.
Where [3] appears, read: Test System: AMES SALMONELLA TYPHIMURIUM, Strain/Indicator: TA98, Metabolic Activation: S-9, Method: STANDARD PLATE.
[4] abbreviates: Test System: AMES SALMONELLA TYPHIMURIUM, Strain/Indicator: TA100, Metabolic Activation: S-9, Method: STANDARD PLATE.
Setting [5] is: Test System: AMES SALMONELLA TYPHIMURIUM, Strain/Indicator: TA102, Metabolic Activation: NONE, Method: STANDARD PLATE.
The mark [6] stands for this setting: Test System: AMES SALMONELLA TYPHIMURIUM, Strain/Indicator: TA1535, Metabolic Activation: NONE, Method: STANDARD PLATE.
The mark [7] stands for this setting: Test System: AMES SALMONELLA TYPHIMURIUM, Strain/Indicator: TA98, Metabolic Activation: RAT, LIVER, S-9, AROCLOR 1254, Method: STANDARD PLATE.
The mark [8] stands for this setting: Test System: AMES SALMONELLA TYPHIMURIUM, Strain/Indicator: TA100, Metabolic Activation: RAT, LIVER, S-9, AROCLOR 1254, Method: STANDARD PLATE.

SMILES strings stand for the structures. Calls of active or inactive are those of the source. The rule behind the calls is not given here.

`CC(C)=CC1C(C(=O)OCN2C(=O)C3=C(CCCC3)C2=O)C1(C)C` (stereo not drawn): the mutagenic call by setting is: (Test System: AMES SALMONELLA TYPHIMURIUM, Strain/Indicator: TA98) “active; positive”; (Test System: AMES SALMONELLA TYPHIMURIUM, Strain/Indicator: TA98, Metabolic Activation: NONE) “active; positive”; (Test System: AMES SALMONELLA TYPHIMURIUM, Strain/Indicator: TA98, Metabolic Activation: NONE, Method: MICROSUSPENSION) “inactive; negative”; (Test System: AMES SALMONELLA TYPHIMURIUM, Strain/Indicator: TA98, Metabolic Activation: S-9, Method: MICROSUSPENSION) “inactive; negative”; (Test System: AMES SALMONELLA TYPHIMURIUM, Strain/Indicator: TA100) “active; positive”; (Test System: AMES SALMONELLA TYPHIMURIUM, Strain/Indicator: TA100, Metabolic Activation: NONE) “inactive; negative”. Besides, the mutagenic call was “inactive; negative” (Test System: AMES SALMONELLA TYPHIMURIUM, Strain/Indicator: TA100, Metabolic Activation: NONE, Method: MICROSUSPENSION) and “inactive; negative” (Test System: AMES SALMONELLA TYPHIMURIUM, Strain/Indicator: TA100, Metabolic Activation: S-9, Method: MICROSUSPENSION).
For `Cc1cn(CC(O)CN=[N+]=[N-])c(=O)[nH]c1=O` (stereo not drawn), the mutagenic call under setting [1] is “active; positive”.
Regarding `Cc1cccc2c1ccc1c3ccccc3ccc21`, the mutagenic call by setting is: (Test System: AMES SALMONELLA TYPHIMURIUM, Strain/Indicator: TA100, Metabolic Activation: RAT, LIVER, MICROSOMES, 1-METHYLCHRYSENE, Method: STANDARD PLATE) “inactive; negative”; (Test System: AMES SALMONELLA TYPHIMURIUM, Strain/Indicator: TA100, Metabolic Activation: RAT, LIVER, MICROSOMES, AROCLOR 1254, Method: STANDARD PLATE) “inactive; negative”; (Test System: AMES SALMONELLA TYPHIMURIUM, Strain/Indicator: TA100, Metabolic Activation: RAT, LIVER, MICROSOMES, Method: STANDARD PLATE) “inactive; negative”.
`CC(C)(Br)C(Br)COP(=O)(OCC(Br)C(C)(C)Br)OCC(Br)C(C)(C)Br` (stereo not drawn): the mutagenic call runs as follows: (Test System: AMES SALMONELLA TYPHIMURIUM, Strain/Indicator: TA100, Metabolic Activation: RAT, LIVER, MICROSOMES, PHENOBARBITAL, Method: PREINCUBATION) “inactive; negative”; (Test System: AMES SALMONELLA TYPHIMURIUM, Strain/Indicator: TA100, Metabolic Activation: RAT, LIVER, MICROSOMES, Method: PREINCUBATION) “inactive; negative”.
For the compound `CC1(C)[C@@H]2CC[C@@]1(C)[C@@H](O)C2`, the mutagenic call was “inactive; negative” (Test System: AMES SALMONELLA TYPHIMURIUM, Strain/Indicator: TA97, Metabolic Activation: NONE, Method: PREINCUBATION); “inactive; negative” (Test System: AMES SALMONELLA TYPHIMURIUM, Strain/Indicator: TA97, Metabolic Activation: NONE, Method: PREINCUBATION (20 MIN)); “inactive; negative” (Test System: AMES SALMONELLA TYPHIMURIUM, Strain/Indicator: TA97, Metabolic Activation: RAT, LIVER, S-9, AROCLOR 1254, Method: PREINCUBATION); “inactive; negative” (Test System: AMES SALMONELLA TYPHIMURIUM, Strain/Indicator: TA97, Metabolic Activation: S-9, Method: PREINCUBATION (20 MIN)); “inactive; negative” (Test System: AMES SALMONELLA TYPHIMURIUM, Strain/Indicator: TA98, Metabolic Activation: NONE, Method: PREINCUBATION (20 MIN)); “inactive; negative” (Test System: AMES SALMONELLA TYPHIMURIUM, Strain/Indicator: TA98, Metabolic Activation: S-9, Method: PREINCUBATION (20 MIN)). In addition, the mutagenic call is “inactive; negative” (Test System: AMES SALMONELLA TYPHIMURIUM, Strain/Indicator: TA100, Metabolic Activation: NONE, Method: PREINCUBATION (20 MIN)); “inactive; negative” (Test System: AMES SALMONELLA TYPHIMURIUM, Strain/Indicator: TA100, Metabolic Activation: S-9, Method: PREINCUBATION (20 MIN)); “inactive; negative” (Test System: AMES SALMONELLA TYPHIMURIUM, Strain/Indicator: TA102, Metabolic Activation: NONE, Method: PREINCUBATION); “inactive; negative” (Test System: AMES SALMONELLA TYPHIMURIUM, Strain/Indicator: TA102, Metabolic Activation: RAT, LIVER, S-9, AROCLOR 1254, Method: PREINCUBATION).
As to `CCOC(=O)C1(CCCCCCOCc2cccs2)CO1` (stereo not drawn), the mutagenic call runs as follows: under setting [2], “active; positive”; under setting [3], “active; positive”; under setting [1], “inactive; negative”; under setting [4], “inactive; negative”; under setting [5], “inactive; negative”; (Test System: AMES SALMONELLA TYPHIMURIUM, Strain/Indicator: TA102, Metabolic Activation: S-9, Method: STANDARD PLATE) “inactive; negative”. For the same compound, the mutagenic call is, setting by setting: under setting [6], “inactive; negative”; (Test System: AMES SALMONELLA TYPHIMURIUM, Strain/Indicator: TA1535, Metabolic Activation: S-9, Method: STANDARD PLATE) “inactive; negative”; (Test System: AMES SALMONELLA TYPHIMURIUM, Strain/Indicator: TA1537, Metabolic Activation: NONE, Method: STANDARD PLATE) “inactive; negative”; (Test System: AMES SALMONELLA TYPHIMURIUM, Strain/Indicator: TA1537, Metabolic Activation: S-9, Method: STANDARD PLATE) “inactive; negative”.
As to `CCOC(=O)CCBr`, the mutagenic call runs as follows: (End Point: IN VITRO CHROMOSOMAL ABERRATIONS, Test System: CHL CELLS, Metabolic Activation: NONE) “active; positive (structural changes)”; (End Point: IN VITRO CHROMOSOMAL ABERRATIONS, Test System: CHL CELLS, Metabolic Activation: RAT, LIVER, S-9, SODIUM PHENOBARBITAL AND 5,6-BENZOFLAVONE) “active; positive (structural changes)”.
Consider `C[C@H]1CC[C@@H]2[C@@H](C)[C@H]3C(C[C@H]4[C@@H]5CC=C6C[C@@H](O[C@@H]7O[C@H](CO)[C@H](O)[C@H](O[C@@H]8O[C@H](CO)[C@@H](O)[C@H](O)[C@H]8O)[C@H]7O[C@@H]7O[C@@H](C)[C@H](O)[C@@H](O)[C@H]7O)CC[C@]6(C)C5CC[C@]34C)N2C1` (stereo partly drawn), for which the mutagenic call is, setting by setting: under setting [2], “inactive; negative”; under setting [3], “inactive; negative”; under setting [1], “inactive; negative”; under setting [4], “inactive; negative”.
As to `COc1ccc(CN(C)N=O)cc1`, the mutagenic call was “inactive; negative” (Test System: AMES SALMONELLA TYPHIMURIUM, Strain/Indicator: TA1535, Metabolic Activation: HAMSTER, LIVER, S-9, AROCLOR 1254, Method: STANDARD PLATE) and “inactive; negative” under setting [6].
On to `CCOP(=O)(OCC)Oc1cc(-c2ccccc2)on1`, for which the mutagenic call by setting is: under setting [2], “inactive; negative”; (Test System: AMES SALMONELLA TYPHIMURIUM, Strain/Indicator: TA98, Metabolic Activation: RAT, LIVER, S-9, Method: STANDARD PLATE) “inactive; negative”; under setting [1], “inactive; negative”; (Test System: AMES SALMONELLA TYPHIMURIUM, Strain/Indicator: TA100, Metabolic Activation: RAT, LIVER, S-9, Method: STANDARD PLATE) “inactive; negative”.
Regarding `COC(=O)Nc1nc2ccc(C(=O)c3ccc(F)cc3)cc2[nH]1`, the mutagenic call was “inactive; negative” under setting [2], “inactive; negative” under setting [7], “inactive; negative” under setting [1] and “inactive; negative” under setting [8].
Turning to `O=S(c1cc(Cl)cc(Cl)c1O)c1cc(Cl)cc(Cl)c1O`, the mutagenic call reads like this: (Test System: AMES SALMONELLA TYPHIMURIUM, Strain/Indicator: TA97, Metabolic Activation: NONE, Method: STANDARD PLATE) “inactive; negative”; (Test System: AMES SALMONELLA TYPHIMURIUM, Strain/Indicator: TA97, Metabolic Activation: RAT, LIVER, S-9, AROCLOR 1254, Method: STANDARD PLATE) “inactive; negative”; under setting [2], “active; positive”; under setting [7], “inactive; negative”; under setting [1], “active; positive”; under setting [8], “inactive; negative”. For the same compound, the mutagenic call is “inactive; negative” under setting [5] and “inactive; negative” (Test System: AMES SALMONELLA TYPHIMURIUM, Strain/Indicator: TA102, Metabolic Activation: RAT, LIVER, S-9, AROCLOR 1254, Method: STANDARD PLATE).

Values taken from PubChem BioAssay AID1259407 (Chemical Carcinogenesis Research Information System (CCRIS), 2018).
